One compound from US20120302569A1, “PHENYL-THIAZOLYL INHIBITORS OF PRO-MATRIX METALLOPROTEINASE ACTIVATION” (priority 2011, published 2012) can be followed below.

Molecules are shown by their SMILES.

Assay [1] deals with T1, MMP9 mediated gelatinase activity (Rattus norvegicus, UniProt P50282).
T1 construct: from tissue; host or cells: liver cryosections of female Lewis rats
The assay can be described thus: In situ zymography of gelatinase activity in livers of SCW-induced rats. The assay is classed as in vivo. Also noted: reduction of liver gelatinase activity: reference not given here. The note with it: for Intensity Mean / Intensity Rat 1 / Intensity Rat 2 / Intensity Rat 3: Day 25-28, liver. From the text: In situ zymography provides an alternative approach to assess active MMP9 in tissues (J Histochem Cytochem; 2004; 52:711-722). Tissue sections are overlain with fluorescein-conjugated gelatin wherein the conjugation is sufficiently dense to cause the fluorescein to be dye-quenched (DQ). Proteolytic degradation of the DQ-gelatin releases the fluorescein from the quenching effect giving rise to bright green fluorescence at the site of degradation. Because in situ zymography requires the use of frozen sections, calcified tissues are problematic. However, an additional feature of the SCW arthritis model is the development of hepatic granulomatous disease (J Immunol; 1986; 137:2199-2209), and MMP9 reportedly plays a role in macrophage recruitment in the granulomas response to mycobacteria (Infect Immun; 2006; 74:6135-6144). Consequently, granulomatous livers from SCW-treated rats were assessed for active MMP9 by in situ zymography.
As described above, Female Lewis (LEW/N) rats, 5-6 weeks of age (80-100 g) were injected (i.p.) with saline or SCW PG-PS. On day 28, when the granulomatous response was well established, animals were sacrificed and livers were frozen in OCT cryo-sectioning medium and 10 μm sections were cut on a Cryome HM 500 M cryotome and mounted on glass microscope slides. Sections were air dried briefly. MMP9 was confirmed as the source of the gelatinase activity in the liver by treating liver sections with monoclonal antibodies directed against the active site of the two major gelatinases MMP9 and MMP2. Liver sections overlain with 50 μL of 100 μg/mL neutralizing mouse monoclonal antibodies directed against MMP9 (Calbiochem, clone 6-6B), or MMP2 (Millipore, clone CA-4001), or with PBS for 1 hr at room temperature. Tissues were rinsed once with PBS, blotted, and briefly air dried and then overlain with DQ-gelatin (Invitrogen) dissolved to 1 mg/mL in deionized water and then diluted 1:10 in 1% wt/vol low gelling point agarose type VII (Sigma) in PBS. The sections were covered with coverslips, incubated in the dark at room temperature for 20 min, and imaged on an Olympus IX80 inverted microscope fitted with fluorescence optics, using SlideBook™ imaging software (Intelligent Imaging Innovations, Inc., Philadelphia, Pa.; version 5.0). Fluorescence intensity was determined (Table 8). When compared to a saline-treated rat, gelatinase activity was abundantly expressed in granulomatous liver sections obtained from a rat with SCW arthritis.
Next, liver in situ zymography was used to assess the relative presence of active MMP9 in rats dosed with vehicle vs. Compound α. Female Lewis (LEW/N) rats, 5-6 weeks of age (80-100 g) were injected (i.p.) with saline or SCW PG-PS. Commencing on day 25, randomized groups of rats (n=3 rats/group) received vehicle or 20 or 50 mg/kg Compound α BID by oral gavage.
Vehicle consisted of an aqueous mixture containing 2% (v:v) N-methylpyrrolidone, 5% (v:v) glycerine, and 20% (w:v) captisol. Treatment continued daily through the morning of day 28. Four hrs after the AM dose on day 28, rats were sacrificed and livers assessed for active MMP9 by in situ zymography (Table 9). Gelatinase activity was increased markedly in SCW-induced rats, but activity was reduced by approximately 80% in animals treated with 50 mg/kg Compound α.

In assay [2] the test system is rats with SCW-induced arthritis. The assay can be described thus: Efficacy in rats with SCW arthritis (ankle thickness, clinical scores). The assay is classed as in vivo, rat. From the text:
A polyarthritis can be induced in female Lewis rats following i.p. administration of streptococcal cell wall (SCW) proteoglycan-polysaccharides (PG-PS) (J Exp Med 1977; 146:1585-1602). The model has an acute phase (days 3-7) that is complement and neutrophil-dependent and that resolves. A chronic erosive phase begins at about day ten and is dependent on the development of specific T cell immunity to the PG-GS, which resists digestion and remains present in synovial macrophages for months. Like rheumatoid arthritis, SCW-induced arthritis is reduced by TNF inhibitors, and the dependence of SCW-induced arthritis on macrophages (Rheumatology; 2001; 40:978-987) and the strong association of rheumatoid arthritis severity with synovial-tissue macrophage counts (Ann Rheum Dis; 2005; 64:834-838) makes SCW-arthritis an attractive model for testing potential therapeutic agents. SCW PG-PS 10S (Beckton Dickinson Cat#210866) suspended in saline was vortexed for 30 seconds and sonicated for 3 min with a probe type sonicator prior to injection. Female Lewis (LEW/N) rats, 5-6 weeks of age (80-100 g) were injected (i.p.) with SCW PG-PS (15 μg of rhamnose/gram BW) in the lower left quadrant of the abdomen using a 1 mL syringe fitted with a 23-gauge needle. Control (disease-free) rats were treated in a similar manner with sterile saline. Control rats were sacrificed on day 5 and groups of SCW-injected rats were sacrificed on day 5 when acute inflammation was maximal or on day 18 when chronic inflammation was established.
To induce arthritis, Female Lewis (LEW/N) rats, 5-6 weeks of age (80-100 g) were injected (i.p.) with SCW PG-PS as described above. Eighteen days later, arthritis was well established. Calipers were used to measure the width (anterior to posterior surface) of the left and right hind ankles of each rat. Each ankle was measured 3 times and averaged, and treatment groups were randomized based on ankle thickness (Table 6). Commencing on day 18, randomized groups of arthritic rats (n=5 rats/group) received vehicle or 5, 20, or 50 mg/kg Compound α BID by oral gavage. Vehicle consisted of an aqueous mixture containing 2% (v:v) N-methylpyrrolidone, 5% (v:v) glycerine, and 20% (w:v) captisol. Treatment continued daily through the morning of day 26.
Hind paw inflammation clinical scores were assigned based on swelling and erythema.

T1 sequence (P50282 108-708): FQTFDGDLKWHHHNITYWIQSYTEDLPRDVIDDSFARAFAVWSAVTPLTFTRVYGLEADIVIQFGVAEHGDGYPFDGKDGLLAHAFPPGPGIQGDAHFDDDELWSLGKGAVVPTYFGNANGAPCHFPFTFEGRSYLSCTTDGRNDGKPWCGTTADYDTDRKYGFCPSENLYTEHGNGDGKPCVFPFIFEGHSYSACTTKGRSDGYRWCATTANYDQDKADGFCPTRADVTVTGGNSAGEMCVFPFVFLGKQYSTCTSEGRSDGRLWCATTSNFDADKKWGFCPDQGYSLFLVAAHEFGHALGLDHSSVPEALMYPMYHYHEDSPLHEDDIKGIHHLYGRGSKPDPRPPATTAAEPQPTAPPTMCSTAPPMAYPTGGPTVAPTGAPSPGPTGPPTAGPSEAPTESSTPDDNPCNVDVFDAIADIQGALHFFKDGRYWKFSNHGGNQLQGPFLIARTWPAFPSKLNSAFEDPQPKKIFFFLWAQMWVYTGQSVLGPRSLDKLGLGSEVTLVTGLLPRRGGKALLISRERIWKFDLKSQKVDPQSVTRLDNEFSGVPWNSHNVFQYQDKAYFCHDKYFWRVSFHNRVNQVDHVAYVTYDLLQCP

As to `Cc1nc(C)c(-c2csc(Nc3cc(S(N)(=O)=O)ccc3OC(C)C)n2)s1` [Compound α, 3-(2′,4′-Dimethyl-[4,5′]bithiazolyl-2-ylamino)-4-isopropoxy-benzenesulfonamide.HBr], in assay [1] (20 mg/kg BID oral), the “Intensity Mean” value turned out to be 55.2 RLU × 10^6, the “Intensity Rat 1” value was 43.0 RLU × 10^6, the “Intensity Rat 2” value came to 69.0 RLU × 10^6 and the “Intensity Rat 3” value worked out at 53.7 RLU × 10^6. The “reduction of liver gelatinase activity” value in assay [1] (50 mg/kg BID oral, Day 25-28) was “approximately 80%”. Moreover, in assay [1] (50 mg/kg BID oral), the “Intensity Mean” value is listed as 11.1 RLU × 10^6, the “Intensity Rat 1” value is 3.2 RLU × 10^6, the “Intensity Rat 2” value is listed as 25.6 RLU × 10^6 and the “Intensity Rat 3” value turned out to be 4.5 RLU × 10^6. Also, the ankle thickness measurements result in assay [2] (5, 20, 50 mg/kg BID oral, Day 18-26) is on record as “dose-dependent decrease”. For the same compound, the clinical score measurements result in assay [2] (5, 20, 50 mg/kg BID oral, significant effects emerging at 20 mg/kg) is “dose dependent decrease”. For the same compound, in assay [2] (Rattus norvegicus, 5 mg/kg BID oral, Day 18-26, read-out: Day 26 % Inh of disease associated increase in ankle thickness), the inhibition at 5 mg/kg was determined as 27%. The inhibition at 20 mg/kg in assay [2] (Rattus norvegicus, 20 mg/kg BID oral, Day 18-26, read-out: Day 26 % Inh of disease associated increase in ankle thickness) worked out at 37%. Besides, the inhibition at 50 mg/kg in assay [2] (Rattus norvegicus, 50 mg/kg BID oral, Day 18-26, read-out: Day 26 % Inh of disease associated increase in ankle thickness) worked out at 46%.
